Read-outs that look alike come from different tables or passages of the source.

The conditions of data set [1]: 50 mg sodium urate in 35 ml of 0.3 mol/L solution pH 7.4±0.5, 36.5° C., 4 hours, 60 rpm.
Data set [2] relates to uric acid crystals in rat kidneys. As to conditions: for kidney weight / serum uric acid: day 5; for kidneys observed with obvious radial white lines (uric acid crystal deposition): 5 days. How it is done:
Except for the normal control group, the other groups were intraperitoneally injected with 300 mg/kg of potassium oteronate and intragastrically perfused with 300 mg/kg of hypoxanthine, and the volume of injection and intragastrical perfusion were 5 ml/kg respectively. The normal control group was administered with the same volume of 0.5% CMC-Na, and the model was established at 0.5 h after the second administration every day with once a day and for five consecutive days. […] The normal and model control groups were administered with the same volume of 0.5% CMC-Na by gastric perfusion.
On the 4th day of the test, the rats were fasted overnight (about 16 h). On the 5th day of the test, the rats were weighed and anesthetized by intraperitoneal injection of 60 mg/kg sodium pentobarbital, with an injection volume of 2 ml/kg. About 0.7 mL of blood was collected from the orbit and then the kidney was removed. The whole blood was centrifuged at 6000 r/min for 10 min, the supernatant was taken and stored at -20° C. for keeping the blood uric acid content to be determined. The kidney was weighed, opened to observe the deposition of uric acid crystals in white radial pattern, and stored at -70° C. for future use.
Uric acid content determination: After the serum was rapidly remelted, the uric acid content was determined according to the method specified in the instructions for use, and the serum uric acid content was calculated.
Data processing: The data were expressed as mean ± standard deviation (x ± SD) and analyzed with SPSS 25.0 software. One-Way ANOVA was used for comparison among multiple groups. LSD test was used for homogeneity of variance, where P <0.05 was considered as statistically significant.

The conditions of data set [3]: 36.5° C., 60 rpm. The protocol:
Experimental materials were as follows: a. uric acid (crystal); b.
Background: An assumption was set that a 60 kg hyperuricemic patient with a total blood volume of 4500 ml has 7 mg of uric acid dissolved in 100 ml of blood and 3 mg of uric acid crystals in 100 ml of blood.

As for `Cl.NC(CO)(CO)CO` [Changsheng No. 1, trimethylol aminomethane hydrochloride], the “dissolution of uric acid in the solution” value (21 mg uric acid in 100 ml of 8 mM (pH 7.4) solution, stirring 1 hour) is recorded as “completely dissolved”. Moreover, the “uric acid level at which the complex did not precipitate as crystals” value (after treatment with the solution, extrapolated to blood) is given as “up to 1260 µmol/L”. Moreover, the “dissolution of sodium urate crystals” value in data set [1] is “dissolved completely”. Moreover, the “uric acid crystal deposition in the kidney, dose dependence” value in data set [2] (0.85-3.40 g/kg, solution at pH 7.4) is “dose-dependently reduced”. The kidney weight in data set [2] (0.85 g/kg) was 2.636 ± 0.491 g; in data set [2] (1.70 g/kg), 2.507 ± 0.461 g; in data set [2] (3.40 g/kg) it was 2.207 ± 0.114 g. Also, the serum uric acid in data set [2] (0.85 g/kg) came to 976.91 ± 172.29 µmol/L; in data set [2] (1.70 g/kg), 838.42 ± 3.19 µmol/L; in data set [2] (3.40 g/kg) it was 965.17 ± 215.90 µmol/L. Further, the “kidneys observed with obvious radial white lines (uric acid crystal deposition)” value in data set [2] (0.85 g/kg/day by gavage) is reported as 11/14; in data set [2] (1.7 g/kg/day by gavage), 5/14; in data set [2] (3.40 g/kg/day by gavage, hydrochloride), “no difference from that of the normal control group”; in data set [2] (3.40 g/kg/day by gavage, listed as Changsheng No.1, hydrochloride), “none of 14”. Also, the “blood uric acid content compared with the model control group” value in data set [2] (all dose groups (0.85, 1.70, 3.40 g/kg)) was “effect of improvement”. Moreover, the Dissolving time turned out to be 4 h in data set [3] (test 1: 0.3 mol/L, 0.5 ml/kg (30 ml), 7 mg dissolved + 3 mg crystalized uric acid per 100 ml); 2 h in data set [3] (test 2: 0.3 mol/L, 1.0 ml/kg (60 ml), 7 mg dissolved + 3 mg crystalized uric acid per 100 ml); 2 h in data set [3] (test 3: 0.3 mol/L, 1.5 ml/kg (90 ml), 7 mg dissolved + 3 mg crystalized uric acid per 100 ml); 0.5 h in data set [3] (test 4: 0.3 mol/L, 2.0 ml/kg (120 ml), 7 mg dissolved + 3 mg crystalized uric acid per 100 ml); 0.5 h in data set [3] (test 5: 0.3 mol/L, 3.0 ml/kg (180 ml), 7 mg dissolved + 3 mg crystalized uric acid per 100 ml); 4 h in data set [3] (test 6: 0.6 mol/L, 0.5 ml/kg (30 ml), 7 mg dissolved + 8 mg crystalized uric acid per 100 ml). Also, the Dissolving time in data set [3] (test 7: 0.6 mol/L, 1.0 ml/kg (60 ml), 7 mg dissolved + 8 mg crystalized uric acid per 100 ml) worked out at 2 h; in data set [3] (test 8: 0.6 mol/L, 1.5 ml/kg (90 ml), 7 mg dissolved + 8 mg crystalized uric acid per 100 ml), 0.5 h.

The values above are taken from patent US20230330041A1, “APPLICATION OF TRIS (HYDROXYMETHYL) AMINOMETHANE PHARMACEUTICALLY ACCEPTABLE SALT TO DRUGS FOR TREATING […]” (BEIJING CHANGSHENG PHARMACEUTICAL TECHNOLOGY CO., LTD., priority 2020, published 2023).
